# Values quoted from earlier work, collected in patent US20250186613A1 (The Trustees of the University of Pennsylvania, priority 2022, published 2025).
# Where two headings read alike, the source gives them in different places.
# Columns and labels:
# [1] = cited from earlier work
# [2] = daily 0.05 mg/kg subcutaneous, cited from earlier work
# GLP-2 receptor = biological target: T1, GLP-2 receptor (Homo sapiens, UniProt O95838); settings: relative to GLP2; cited from earlier work
# T1 sequence (O95838 1-553): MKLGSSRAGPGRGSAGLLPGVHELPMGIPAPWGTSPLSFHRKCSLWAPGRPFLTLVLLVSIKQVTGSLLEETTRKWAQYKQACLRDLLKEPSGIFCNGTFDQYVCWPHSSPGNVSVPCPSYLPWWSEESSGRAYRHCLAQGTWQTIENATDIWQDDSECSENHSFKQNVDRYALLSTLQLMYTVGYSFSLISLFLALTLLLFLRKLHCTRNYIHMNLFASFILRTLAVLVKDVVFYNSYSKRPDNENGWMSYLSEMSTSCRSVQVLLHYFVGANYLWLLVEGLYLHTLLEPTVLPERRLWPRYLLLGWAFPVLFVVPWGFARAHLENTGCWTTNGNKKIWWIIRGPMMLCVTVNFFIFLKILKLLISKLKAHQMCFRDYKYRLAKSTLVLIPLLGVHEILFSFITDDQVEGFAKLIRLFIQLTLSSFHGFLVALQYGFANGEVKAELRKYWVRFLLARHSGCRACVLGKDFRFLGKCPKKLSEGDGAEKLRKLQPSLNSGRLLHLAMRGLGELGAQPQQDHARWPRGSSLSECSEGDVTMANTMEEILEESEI
compound,measurement,setting,value
CC[C@H](C)[C@H](NC(=O)[C@H](Cc1ccccc1)NC(=O)[C@H](CC(=O)O)NC(=O)[C@H](CCCN=C(N)N)NC(=O)[C@H](C)NC(=O)[C@H](C)NC(=O)[C@H](CC(C)C)NC(=O)[C@H](CC(N)=O)NC(=O)[C@H](CC(=O)O)NC(=O)[C@H](CC(C)C)NC(=O)[C@@H](NC(=O)[C@@H](NC(=O)[C@H](CC(N)=O)NC(=O)[C@H](CCSC)NC(=O)[C@H](CCC(=O)O)NC(=O)[C@H](CC(=O)O)NC(=O)[C@H](CO)NC(=O)[C@H](Cc1ccccc1)NC(=O)[C@H](CO)NC(=O)CNC(=O)[C@H](CC(=O)O)NC(=O)[C@H](C)NC(=O)[C@@H](N)Cc1cnc[nH]1)[C@@H](C)O)[C@@H](C)CC)C(=O)N[C@@H](CC(N)=O)C(=O)N[C@@H](Cc1c[nH]c2ccccc12)C(=O)N[C@@H](CC(C)C)C(=O)N[C@H](C(=O)N[C@@H](CCC(N)=O)C(=O)N[C@H](C(=O)N[C@@H](CCCCN)C(=O)N[C@H](C(=O)N[C@H](C(=O)N[C@@H](CC(=O)O)C(=O)O)[C@@H](C)O)[C@@H](C)CC)[C@@H](C)O)[C@@H](C)CC [GLP-2],serum half-life,"[1]; native peptide, cleaved by DPP IV",0.083 h
CC[C@H](C)[C@H](NC(=O)[C@H](Cc1ccccc1)NC(=O)[C@H](CC(=O)O)NC(=O)[C@H](CCCNC(=N)N)NC(=O)[C@H](C)NC(=O)[C@H](C)NC(=O)[C@H](CC(C)C)NC(=O)[C@H](CC(N)=O)NC(=O)[C@H](CC(=O)O)NC(=O)[C@H](CC(C)C)NC(=O)[C@@H](NC(=O)[C@@H](NC(=O)[C@H](CC(N)=O)NC(=O)[C@H](CCSC)NC(=O)[C@H](CCC(=O)O)NC(=O)[C@H](CC(=O)O)NC(=O)[C@H](CO)NC(=O)[C@H](Cc1ccccc1)NC(=O)[C@H](CO)NC(=O)CNC(=O)[C@H](CC(=O)O)NC(=O)CNC(=O)[C@@H](N)Cc1c[nH]cn1)[C@@H](C)O)[C@@H](C)CC)C(=O)N[C@@H](CC(N)=O)C(=O)N[C@@H](Cc1c[nH]c2ccccc12)C(=O)N[C@@H](CC(C)C)C(=O)N[C@H](C(=O)N[C@@H](CCC(N)=O)C(=O)N[C@H](C(=O)N[C@@H](CCCCN)C(=O)N[C@H](C(=O)N[C@H](C(=O)N[C@@H](CC(=O)O)C(=O)O)[C@@H](C)O)[C@@H](C)CC)[C@@H](C)O)[C@@H](C)CC [Teduglutide],serum half-life,[1]; A2G mutation for DPP IV resistance,1.5 h
same,T½ (h),[1]; in vivo,1.5 (0.1) h
same,patients who achieved >20% reduction of PN volume per week from the baseline,[2]; 2 years of treatment,90%
same,patients who obtained >1 additional days PN off per week from the baseline,[2]; 2 years of treatment,70%
same,PN volume,[2]; throughout 2 years of treatment,sustained and continuous reduction of PN volume
Apraglutide,T½,[1]; in vivo,30 h
same,EC50 (/GLP2),GLP-2 receptor,0.5 /GLP2
Glepaglutide,T½,[1]; in vivo,50 h
same,EC50 (/GLP2),GLP-2 receptor,4 /GLP2
